In patent publication US20110034714A1, “METAL COMPLEX COMPOUND, CANCER THERAPEUTIC AGENT COMPOSITION CONTAINING THE METAL COMPLEX COMPOUND AS AN ACTIVE INGREDIENT, AND INTERMEDIATE FOR THE METAL COMPLEX COMPOUND” (priority 2007, published 2011):

Experiments:
Assay type in all cases: in vivo
human tumor Lu-24 = experiment: Anti-tumor action in nude mice transplanted with human tumor Lu-24; details: Lu-24 tumor-bearing nude mice, 10.0 mg and 12.0 mg/kg, tail vein, 3 times at 4 days' intervals
Method: (§1) Using nude mice transplanted with human tumors SC-6-JCK and Lu-24, the anti-tumor action of the substance having the structure below (Compound 44), among the compounds of the present invention, was investigated. Each of SC-6-JCK and Lu-24 was subcutaneously implanted in nude mice, and, when the tumor volumes reached to 100 to 300 mm^3, 7.0 mg and 10.0 mg/kg of the present test substance were respectively administered to the SC-6-JCK tumor-bearing mice, and 10.0 mg and 12.0 mg/kg of the present test substance were respectively administered to the Lu-24 tumor-bearing mice, from the tail vein 3 times intermittently at 4 days' intervals.

[1] = BUN (blood urea nitrogen) as an index of nephrotoxicity in tumor-bearing nude mice; details: 4 days after completion of the administration; SC-6-JCK and Lu-24 tumor-bearing nude mice
Method: as §1

human tumor SC-6-JCK = experiment: Anti-tumor action in nude mice transplanted with human tumor SC-6-JCK; details: SC-6-JCK tumor-bearing nude mice, 7.0 mg and 10.0 mg/kg, tail vein, 3 times at 4 days' intervals
Method: as §1

CCOP1(=O)CP(=O)(OCC)[O][Pt]([NH2])([NH2])[O]1 (stereo not drawn) [Compound 44]
suppression of the tumor volume (human tumor Lu-24): suppression of the tumor volume was observed in a dose-dependent manner
BUN (blood urea nitrogen) as an index of nephrotoxicity [1]: an increase of the BUN value was not observed
suppression of the tumor volume (human tumor SC-6-JCK): suppression of the tumor volume was observed in a dose-dependent manner
